Several values for one entry are separate records, joined by “and”; a condition that tells them apart may be missing. Identical values can stand only once. Inconclusive results and toxic doses are left out.
System: P388 leukemia ip, CD2F1 mice, survival T/C
Experiment: NCI In Vivo Anticancer Drug Screen. Data for tumor model P388 Leukemia (intraperitoneal) in CD2F1 (CDF1) mice
Conditions: endpoint: median survival time, higher = longer survival
Summary of the method: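 Mice carrying the transplanted tumor received test compound or vehicle. Survival was recorded in each group, and the value is the treated-group measurement divided by that of the vehicle-treated control group.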

[1] = dose: 50.0 mg/kg/injection, schedule: Q01DX005 (ip), vehicle: Klucel (hydroxypropylcellulose) (HPC)
[2] = dose: 100.0 mg/kg/injection, schedule: Q01DX005 (ip), vehicle: Klucel (hydroxypropylcellulose) (HPC)
[3] = dose: 50.0 mg/kg/injection, schedule: Q01DX009 (ip), vehicle: Klucel (hydroxypropylcellulose) (HPC)
[4] = dose: 100.0 mg/kg/injection, schedule: Q01DX009 (ip), vehicle: Klucel (hydroxypropylcellulose) (HPC)
[5] = dose: 200.0 mg/kg/injection, schedule: Q01DX009 (ip), vehicle: Klucel (hydroxypropylcellulose) (HPC)
[6] = dose: 50.0 mg/kg/injection, schedule: Q01DX005 (ip), vehicle: saline with Tween-80
[7] = dose: 100.0 mg/kg/injection, schedule: Q01DX005 (ip), vehicle: saline with Tween-80
[8] = dose: 60.0 mg/kg/injection, schedule: Q01DX005 (ip), vehicle: saline with Tween-80
[9] = dose: 120.0 mg/kg/injection, schedule: Q01DX005 (ip), vehicle: saline with Tween-80
[10] = dose: 240.0 mg/kg/injection, schedule: Q01DX005 (ip), vehicle: saline with Tween-80
[11] = dose: 50.0 mg/kg/injection, schedule: Q01DX009 (ip), vehicle: saline with Tween-80
[12] = dose: 100.0 mg/kg/injection, schedule: Q01DX009 (ip), vehicle: saline with Tween-80

SMILES: CC(=O)OCC(C)[C@H](C)C(=O)C1OCOC(C2CC(=O)NC(=O)C2)[C@@H]1OC(C)=O (some centres not stated)
- T/C (dose: 0.01 mg/kg/injection, schedule: Q01DX009 (ip), vehicle: distilled water + alcohol): 100 % of control
- T/C (dose: 0.03 mg/kg/injection, schedule: Q01DX009 (ip), vehicle: distilled water + alcohol): 98 % of control
- T/C (dose: 0.06 mg/kg/injection, schedule: Q01DX009 (ip), vehicle: distilled water + alcohol): 98 % of control
- T/C (dose: 0.12 mg/kg/injection, schedule: Q01DX009 (ip), vehicle: distilled water + alcohol): 100 % of control

SMILES: O=[N+]([O-])c1ccc(CSSCc2ccc([N+](=O)[O-])cc2)cc1
- T/C [1]: 98 % of control
- T/C [2]: 100 % of control
- T/C (dose: 200.0 mg/kg/injection, schedule: Q01DX005 (ip), vehicle: Klucel (hydroxypropylcellulose) (HPC)): 105 % of control

SMILES: OC(CCl)c1ccc2ccc3c(c2c1)Nc1ccccc1S3 (configuration not stated)
- T/C (dose: 100.0 mg/kg/injection, schedule: Q04DX003 (ip), vehicle: Klucel (hydroxypropylcellulose) (HPC)): 107 % of control
- T/C (dose: 200.0 mg/kg/injection, schedule: Q04DX003 (ip), vehicle: Klucel (hydroxypropylcellulose) (HPC)): 104 % of control
- T/C (dose: 400.0 mg/kg/injection, schedule: Q04DX003 (ip), vehicle: Klucel (hydroxypropylcellulose) (HPC)): 102 % of control

SMILES: Cc1c(NC(=S)Nc2ccc(Cl)c(Cl)c2)c(=O)n(-c2ccccc2)n1C
- T/C [3]: 106 % of control
- T/C [4]: 93 % of control
- T/C [5]: 88 % of control

SMILES: CC1(CCC(=O)c2cc3c(cc2Br)OCO3)OCCO1
- T/C (dose: 25.0 mg/kg/injection, schedule: Q01DX005 (ip), vehicle: saline with Tween-80): 99 % of control
- T/C [6]: 99 % of control
- T/C [7]: 100 % of control

SMILES: O=C1NC(=O)C2(CCC(O)C2)c2cc[n+]([O-])cc21 (configuration not stated)
- T/C (dose: 12.5 mg/kg/injection, schedule: Q01DX005 (ip), vehicle: saline): 96 % of control
- T/C (dose: 25.0 mg/kg/injection, schedule: Q01DX005 (ip), vehicle: saline): 105 % of control
- T/C (dose: 50.0 mg/kg/injection, schedule: Q01DX005 (ip), vehicle: saline): 105 % of control
- T/C (dose: 100.0 mg/kg/injection, schedule: Q01DX005 (ip), vehicle: saline): 100 % of control

SMILES: CSCCC(NC(=O)OCC1c2ccccc2-c2ccccc21)C(=O)O (configuration not stated)
- T/C [1]: 103 % of control
- T/C [2]: 100 % of control

SMILES: CCC12CCCN3CCc4c(n(c5ccc(Br)cc45)C(=O)/C(=N\O)C1)C32 (configuration not stated)
- T/C [8]: 101 % of control
- T/C [9]: 97 % of control
- T/C [10]: 97 % of control

SMILES: CC1=C(C)CN(c2ccnc3cc(Cl)ccc23)OC1
- T/C [6]: 102 % of control
- T/C [7]: 97 % of control
- T/C (dose: 200.0 mg/kg/injection, schedule: Q01DX005 (ip), vehicle: saline with Tween-80): 97 % of control

SMILES: CC1=C/C(=N\N2CCOCC2)C(C(O)(C(F)(F)F)C(F)(F)F)C(C)(C)C1 (configuration not stated)
- T/C [3]: 96 % of control
- T/C [4]: 102 % of control
- T/C [5]: 105 % of control

SMILES: O=[N+]([O-])/C=C/c1cc2ccc3ccccc3c2[nH]1
- T/C [8]: 94 % of control
- T/C [9]: 89 % of control
- T/C [10]: 102 % of control

SMILES: CCCCN(C)N=Nc1c(C(N)=O)n[nH]c1C
- T/C (dose: 44.0 mg/kg/injection, schedule: Q04DX003 (ip), vehicle: saline with Tween-80): 122 % of control
- T/C (dose: 100.0 mg/kg/injection, schedule: Q04DX003 (ip), vehicle: saline with Tween-80): 150 % of control
- T/C (dose: 200.0 mg/kg/injection, schedule: Q04DX003 (ip), vehicle: saline with Tween-80): 90 % of control

SMILES: CSc1ccc(NC(=O)ON2CCCCC2)cc1
- T/C [11]: 99 % of control
- T/C [12]: 108 % of control
- T/C (dose: 200.0 mg/kg/injection, schedule: Q01DX009 (ip), vehicle: saline with Tween-80): 101 % of control

SMILES: c1ccc(O[Si](Oc2ccccc2)(Oc2ccccc2)Oc2ccccc2)cc1
- T/C (dose: 25.0 mg/kg/injection, schedule: Q01DX009 (ip), vehicle: other): 86 % of control
- T/C (dose: 50.0 mg/kg/injection, schedule: Q01DX009 (ip), vehicle: other): 96 % of control
- T/C (dose: 100.0 mg/kg/injection, schedule: Q01DX009 (ip), vehicle: other): 99 % of control

SMILES: CN(C)N=Nc1ccc(-c2ccccc2)cc1
- T/C (dose: 12.5 mg/kg/injection, schedule: Q01DX009 (ip), vehicle: saline with Tween-80): 100 % of control and 104 % of control
- T/C (dose: 25.0 mg/kg/injection, schedule: Q01DX009 (ip), vehicle: saline with Tween-80): 102 % of control and 115 % of control
- T/C [11]: 101 % of control and 110 % of control
- T/C [12]: 102 % of control and 117 % of control
